Laboratory results taken from US20130253179A1, “Functionalization Processes and Reactants Used in Such Processes Using an Isatoic Anhydride or a Derivative Thereof, Biological Molecules Thus Treated and Kits” (priority 2010, published 2013).

Key:
[1] = test system: model oligoribonucleotide (ORN) with 27 bases; assay: Functionalisation of a model ORN with 27 bases: functionalisation rate and regiospecificity by HPLC/LC-MS after nuclease P1/alkaline phosphatase hydrolysis; format: biochemical; details: for Fr (corrected functionalisation rate): ORN 8 nmol; for Fr (corrected functionalisation rate) / External/internal regiospecificity (uncorrected ratio of areas acylated mononucleosides / acylated dinucleotides): compound 30 mM, 1 h at 65° C., 250 mM TEAAc pH 7, 25% DMSO
Description: For this purpose, a fixed quantity of ORN is reacted with an isatoic anhydride derivative conjugated to a molecule of interest (Cy3 IA Me (13)), under various temperature conditions, duration conditions, reaction medium conditions, etc. HPLC monitoring of the reaction at 260 nm makes it possible to detect the disappearance of the peak corresponding to the initial ORN and the appearance of peaks corresponding to acylated ORN. These products have a greater retention time and have an absorption spectrum corresponding to both that of ORN and that of the fluorescent label.
However, for greater precision on the functionalisation site and to precisely evaluate the functionalisation rate (Fr), the ORN population (labelled and unlabelled) is separated from the excess label by precipitation with acetone/lithium perchlorate or by gel permeation (NAP 5™, GE Health Care. Then the ORNs thus obtained are submitted to hydrolysis with the nuclease P1 (Aldrich, Saint Louis, USA) and with the alkaline phosphatase (Aldrich, Saint Louis, USA), in order to hydrolyse the phosphate diester bonds of ORN.
The ORN functionalisation rate (Fr) is evaluated by measuring: • the area corresponding to the terminal mononucleoside adducts (functionalised at 2′ and at 3′) and the area corresponding to the acylated dinucleosides (functionalised internally on 2′OH) • compared to the area of the peaks corresponding to the four ribonucleosides.
The internal/external regiospecificity of the acylation is evaluated by measuring the relative proportion of the areas corresponding to the: • end mono-nucleotides acylated at 2′ and at 3′ • and di-nucleotides acylated internally on 2′OH • which are easily detectable by HPLC.
The mixture is incubated for 60 minutes at 65° C. in an oven on a rack which is temperature-balanced in advance. An HPLC injection (conditions 3) makes it possible to monitor a formation of a certain quantity of acylated ORN as described in FIG. 6. To eliminate the salts and the excess label, the mixture is then purified on Sephadex NAP 5 gel (GE Health Care, Uppsala, Sweden)) and/or triple precipitation in 1.2 mL of a 180 mM Acetone/LiClO4 75/25 mixture. To finish, the pellet is dried with acetone and is evaporated with the centrifugal evaporator (RCT 60, Jouan, St Herblain, France). The residue is then taken up in 33 μL of a H2O/DMSO 85/15 solution and an HPLC injection (conditions 3) is performed in order to verify the proper elimination of the label. There is added to the mixture 2 μL of nuclease P1 (ref.: N8630 Sigma-Aldrich, St Louis, USA) in 1 U/μl solution in its buffer: 20 mM sodium acetate pH 5.5; 1 mM ZnCl2; 50 mM NaCl and 1 μL of 7 u/μl alkaline phosphatase in water (Ref. P7923-2KU Sigma-Aldrich, St Louis, USA). The medium is left at ambient temperature for 4 to 6 hours. It is then injected into HPLC (conditions 3) in order to verify the total hydrolysis of the ORN and in order to analyse the nature of the fragments obtained in accordance with what was described above and as described in FIG. 6.
The functionalisation rate is evaluated with UV at 260 nm by integration of the clusters corresponding to the acylated dinucleotides and to the acylated nucleosides) relative to the clusters corresponding to the four ribonucleosides. The ratio of the population of acylated dinucleotides to the population of acylated nucleosides is evaluated in the same way in order to evaluate the percentage of functionalisation on the 3′ terminal end.
The functionalisation rate values, presented within the framework of this invention, take into account the correction factor which must be applied according to the molar extinction coefficient at 260 nm of each of the nucleosides and according to whether they are nucleosides or dinucleotides. […]

ODN with 53 bases = assay: RNA vs DNA chemoselectivity: functionalisation of an ODN with 53 bases; format: biochemical; details: compound 30 mM, DMSO/TEAAc buffer 25/75 (250 mM pH 7), 1 h at 65° C.
Protocol: After precipitation with acetone and hydrolysis with nuclease P1 and alkaline phosphatase, the hydrolysed fragments are analysed by LC-MS, as described in example 3. An example of the chromatograms monitoring the reaction of ODN or ORN with compound 13 is shown in FIG. 9, in which graphs A, B and C respectively represent ORN, ORN functionalised with compound 13 and precipitated, and ORN functionalised with 13, precipitated and hydrolysed. Graphs D, E and F represent the same thing, but with ODN.

[2] = FIG. 6 graph D, share of functionalised adducts

Row | SMILES | Fr (corrected functionalisation rate) [1] | External/internal regiospecificity (uncorrected ratio of areas acylated mononucleosides / acylated dinucleotides) [1] | corrected functionalisation rate of the ODN (ODN with 53 bases) | solubility (Solubility in water) | acylated dinucleotides (peak 1) [1, 2] | nucleosides acylated at 2′ or at 3′ (peaks 2 and 3) [1, 2] | Fr (corrected functionalisation rate) ([1]; listed as 13) | Fr (corrected functionalisation rate) ([1]; listed as Cy3 IA ME (13)) | corrected functionalisation rate ([1]; compound 15 mM, protocol of example 3)
1 | Cn1c(=O)oc(=O)c2cc(NC(=O)CCSSCCNC(=O)CCOCCOCCOCCOCCNC(=O)CCCCC3SCC4NC(=O)NC43)ccc21 (stereo not drawn) [5Biot PEG4 SS IA Me 24] | 2.8% | 62/38 | 0.1% |  |  |  |  |  | 
2 | CCN1/C(=C\C=C\C2=[N+](CCCCCC(=O)Nc3ccc4c(c3)c(=O)oc(=O)n4C)c3ccc(S(=O)(=O)[O-])cc3C2(C)C)C(C)(C)c2cc(S(=O)(=O)[O-])ccc21.[K+] [Cy3 IA Me 13, 1-methyl 5-Cy3-isatoic anhydride] | 4.5% | 58/42 | 0.1% | > 100 mM | 42% | 58% | 4.5% | 4.2% | 2.6%
